PubChem BioAssay (NCI)
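Cultured in 96-well plates, cells were exposed to test compound for 48 hours across five concentrations. The concentration for full growth arrest is given as TGI.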

Assays:
Experiment in all cases: NCI anticancer screen, dose series, 48 h
NCI-H23 lung = system: NCI-H23 lung
UACC-62 melanoma = system: UACC-62 melanoma
TK-10 renal = system: TK-10 renal
A549 NSCLC = system: A549 NSCLC
EKVX NSCLC = system: EKVX NSCLC
U251 CNS = system: U251 CNS
NCI-H522 lung = system: NCI-H522 lung
SK-MEL-2 melanoma = system: SK-MEL-2 melanoma
OVCAR-3 ovarian = system: OVCAR-3 ovarian
MDA-MB-231 breast = system: MDA-MB-231 breast

SMILES | TGI (NCI-H23 lung) [µM] | TGI (UACC-62 melanoma) [µM] | TGI (TK-10 renal) [µM] | TGI (A549 NSCLC) [µM] | TGI (EKVX NSCLC) [µM] | TGI (U251 CNS) [µM] | TGI (NCI-H522 lung) [µM] | TGI (SK-MEL-2 melanoma) [µM] | TGI (OVCAR-3 ovarian) [µM] | TGI (MDA-MB-231 breast) [µM]
O=C1CC(c2cccc(Br)c2)n2cccc21 (stereo not given) | > 100 | > 100 | > 100 | > 100 | > 100 | > 100 | > 100 | 95.3 | > 100 | > 100
Cc1csc(/N=C\c2c(O)c3ccccc3oc2=O)n1 | 33 | > 100 | 77.8 | > 100 | 99.3 | > 100 | > 100 | 49.5 | > 100 | 34.7
CCOC(=O)C(NC(=O)c1ccccc1)(N1CCOCC1)C(F)(F)F (stereo not given) | > 100 | > 100 | > 100 | > 100 | > 100 | > 100 | > 100 | > 100 | > 100 | > 100
COc1cc2cc(C(=O)N3CC(CCl)c4c3cc(N)c3ccccc43)[nH]c2c(OC)c1OC (stereo not given) | < 0.01 | < 0.01 | 2.32 | 1.4 | < 0.01 | 0.0998 | < 0.01 | < 0.01 | < 0.01 | 0.519
COc1ccc(C2C3COc4ccccc4C3=NN2c2ccccc2)cc1 (stereo not given) | > 100 | > 100 | > 100 | > 100 | > 100 | > 100 | > 100 | > 100 | > 100 | > 100
Cc1ccc(NC(=O)CSc2nc(=O)[nH]c3nc[nH]c23)cc1 | > 100 | > 100 | > 100 | > 100 | > 100 | > 100 | > 100 | > 100 | > 100 | > 100
CCCCCCCCCCCCCCCC(=O)N(CCCCCCCCCCC(=O)O)CC(O)C(O)C(OC1OC(CO)C(O)C(O)C1O)C(O)CO (stereo not given) | > 100 | 34.7 | > 100 | > 100 | > 100 | 32.9 | > 100 | 43.5 | > 100 | > 100
CCCCCCCCCCCCCCCCOC[C@@H](COC(c1ccccc1)(c1ccccc1)c1ccccc1)O[P+](=S)OC (stereo not given in full) | 23.7 | 14.5 | 23.6 | 21 | 31.5 | 17.6 | 27.5 | 33.3 | 31.8 | 5.49
O=C(N/N=C(/COc1ccc([N+](=O)[O-])cc1)N=Cc1ccncc1)c1ccncc1 | > 100 | > 100 | > 100 | > 100 | > 100 | > 100 | > 100 | > 100 | > 100 | > 100
C=C1C(=O)O[C@@H]2C=C(C)C3=CC(=O)[C@](C)(C[C@H](OC(=O)/C(C)=C\C)[C@@H]12)O3 | 3.43 | 2.06 | 2.19 | 10.1 | 8.78 | 4.85 | 0.394 | 6.73 | 1.71 | 2.24
O=C(O)CC1NCc2cc3ccccc3nc21 (stereo not given) | > 100 | > 100 | > 100 | > 100 | > 100 | > 100 | > 100 | > 100 | > 100 | > 100
O=c1[nH]nc(Cc2ccccc2)n1CCO | > 100 | > 100 | > 100 | > 100 | > 100 | > 100 | > 100 | > 100 | > 100 | > 100
CCOC(=O)/C(C#N)=C/c1ccnc2ccccc12 | > 100 | > 100 | > 100 | > 100 | > 100 | > 100 | > 100 | > 100 | > 100 | > 100
CN(/N=C/c1ccnc2ccccc12)c1ccc(Cl)cc1[N+](=O)[O-] | > 100 | > 100 | > 100 | > 100 | > 100 | > 100 | > 100 | > 100 | > 100 | > 100
COc1cc2c(=O)cnoc2cc1O | > 100 | > 100 | > 100 | > 100 | > 100 | > 100 | > 100 | > 100 | > 100 | > 100
